Measurements taken from US4659732A, “Lipoxygenase inhibiting 1-arylalkyl-, 1-arylthio-, and 1-aryloxypyrazole-4,5-diones” (Bayer Aktiengesellschaft, priority 1984, dated 1987).

Key:
cyclooxygenase = conditions: known lipoxygenase inhibitors; cited from earlier work
5-lipoxygenase = target: T1, 5-lipoxygenase (Homo sapiens, UniProt P09917); assay: Inhibition of LTB4 synthesis in human PMN leucocytes (A 23 187 stimulated); format: cell-based; conditions: for inhibition at 0.5 µg/mL: 0.5 μg/ml; for inhibition at 1 µg/mL: 1 μg/ml; for inhibition at 5 µg/mL: 5 μg/ml; for inhibition at 0.1 µg/mL: 0.1 μg/ml
T1 construct: The human polymorphonuclear leucocytes metabolize the arachidonic acid to give 5-hydroxy-5,8,11,14-eicosatetraenoic acid (5-HETE) and leucotriene B4; endogenous in cells; host or cells: human PMN leucocytes from heparinized whole blood
T1 sequence (P09917 1-674): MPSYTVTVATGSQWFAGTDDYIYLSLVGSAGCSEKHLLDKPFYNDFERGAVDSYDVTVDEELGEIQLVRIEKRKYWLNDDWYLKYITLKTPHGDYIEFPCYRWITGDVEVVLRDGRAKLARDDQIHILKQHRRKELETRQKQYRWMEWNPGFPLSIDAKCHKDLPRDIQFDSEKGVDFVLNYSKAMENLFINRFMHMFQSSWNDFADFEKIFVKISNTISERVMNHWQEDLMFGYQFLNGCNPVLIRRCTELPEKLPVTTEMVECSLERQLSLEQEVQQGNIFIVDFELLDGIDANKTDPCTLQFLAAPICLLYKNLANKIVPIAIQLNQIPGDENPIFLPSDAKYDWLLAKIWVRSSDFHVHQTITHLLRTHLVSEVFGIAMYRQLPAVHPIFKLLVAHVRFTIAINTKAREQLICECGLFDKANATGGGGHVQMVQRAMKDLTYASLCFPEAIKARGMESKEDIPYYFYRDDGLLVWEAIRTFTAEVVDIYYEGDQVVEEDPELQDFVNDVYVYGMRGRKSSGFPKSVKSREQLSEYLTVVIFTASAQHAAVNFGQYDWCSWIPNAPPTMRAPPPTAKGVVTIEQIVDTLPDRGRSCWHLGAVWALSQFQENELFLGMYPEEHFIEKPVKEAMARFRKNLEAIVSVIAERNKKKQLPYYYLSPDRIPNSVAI
Description: The 5-lipoxygenase responsible for the biosynthesis of the leucotrienes B4, C4 and D4 is inhibited selectively at low concentrations. […] Inhibition of the liberation of 5-HETE and leucotriene B4 from the leucocytes constitutes a measure of the lipoxygenase-inhibiting effect of the compounds according to the invention (see Table 1). The test with the human leucocytes was carried out in accordance with Borgeat and Samuelsson (J. Biol. Chem. 254, 2643, 1979, and Proc. Natl. Acad. Sci. USA, 76, 2148, 1979). The human PMN leucocytes (>95%) used in the present example were obtained from heparinized whole blood by dextran sedimentation and subsequent density gradient separation (Ficoll-Paque) (see A. Boyum, Scand. J. Immunol., 5, Suppl. 5, 9, 1976). 2×10^7 cells/ml were suspended in Ca^2+ -containing Dulbecco phosphate buffer and stimulated in the presence and absence of lipoxygenase inhibitors, with the calcium ionophore A 23 187. After 15 minutes, the lipoxygenase products were extracted from the acidified incubation medium and separated by means of HPLC.

leucocyte stickiness = assay: Stickiness of leucocytes in hamster cheek pouch; format: in vivo, Male Syrian golden hamsters; conditions: Effect after administration of 1 mg/kg i.a.
Description: The reduction in the leucocyte stickiness is also responsible for the decrease in ischaemic areas since, after treatment with the compounds to be used according to the invention, the leucocytes pass through the microcirculatory region of these areas without reducing the supply to the corresponding tissue by totally or temporarily closing small vessels or capillaries.
The number of leucocytes which pass through a certain section of a vessel serves as a simple model for measuring the stickiness of leucocytes (Bray, M. A. et al., Prostaglandins, 22, 213, 1981). The less sticky these cells are, the greater is the number of leucocytes counted.
Male Syrian golden hamsters (80-100 g) were anaesthetized with nembutal (i.p.; 60 mg/kg). After fixing a PE 10 catheter in the A.femoralis, the animal is laid on a Duling dissection stage (MVR 5, 423, 1973) and the right cheek pouch is drawn out by inserting a Q-tip. It is carefully drawn into that part of the stage which is intended for this purpose, and is stretched out and fixed. From the beginning of the preparation procedure, the prepared cheek pouch is rinsed over with 5 ml/minute of superfusate. The temperature of the solution is 36° C. While protecting the vessels, the upper layer of tissue is cut longitudinally and folded to the side. Under about 200 times magnification, an area of about 1 cm^2 of connective tissue is carefully exposed. The animal, together with the dissection stage, is placed on the microscope stage. A thermocouple is inserted into the left cheek pouch. The body temperature of the animal is monitored in this manner and maintained within +0.3° C. with the aid of an IR lamp (240 watt).
Measurement of the leucocyte stickiness is carried out under a magnification of about 500 times. A small vein (30-40 μm .phi.) is selected in the exposed area. Over a certain section of this vessel, the number of leucocytes passing by per unit time (min.) is counted.

myocardial infarct = assay: Myocardial infarct after acute ligature of a coronary artery; format: in vivo; conditions: dog
Description: The actions of various pyrazoledione derivatives on the experimental myocardial infarct in the dog were investigated after acute ligature of a coronary artery. In pentobarbital-anaesthetised dogs, the proximal left anterior descending coronary artery (LAD) […] occluded for 6 hours. The artery was not reperfused. One hour prior to ligature, the test compounds in 1% tyclose suspension were administered intraduodenally as a bolus. The same procedure was adopted for the controls, except that no active compound was administered. The size of the infarct and the area of perfusion of the LAD were determined biochemically by means of a dual perfusion method using Evans Blue and triphenyltetrazolium chloride. […] This could be observed both with respect to the absolute infarct weight and the infarct size relative to the weight of the left ventricule. Initially, the blood pressure decreased as a result of the coronary ligature, and this led to a reflectory increase in the heart rate.

[1] = administered systemically (for example orally); cited from earlier work

inhibition at 0.5 µg/mL (5-lipoxygenase) [%]	inhibition at 1 µg/mL (5-lipoxygenase) [%]	inhibition at 5 µg/mL (5-lipoxygenase) [%]	haemodynamic effects (myocardial infarct; LAD ligature, intraduodenal)	inhibition at 0.1 µg/mL (5-lipoxygenase) [%]	SMILES	cyclooxygenase inhibition (cyclooxygenase)	Inhibition of leucocyte stickiness (leucocyte stickiness)	infarct size (myocardial infarct; gradual LAD occlusion 6 hours, intraduodenal bolus one hour prior to ligature, absolute infarct weight and relative to left ventricle weight)	toxic side effects [1]
12	29	84	–	–	CC1=NN(C(C)c2ccc(Cl)c(Cl)c2)C(=O)C1=O (stereo not drawn) [Example 5]	–	no action	–	–
60	88	100	–	38	CC1=NN(CCOc2ccccc2)C(=O)C1=O [Example 6]	–	no effect	–	–
20	37	100	–	6	COCC1=NN(C(C)c2ccc(Cl)c(Cl)c2)C(=O)C1=O (stereo not drawn) [Example 3]	–	no effect	–	–
–	29	32	–	–	CC1=NN(C(C)C2CCCCC2)C(=O)C1=O (stereo not drawn) [Example 11]	–	inhibition	–	–
10	21	100	–	–	CC1=NN(C(C)c2ccc3c(c2)CCCC3)C(=O)C1=O (stereo not drawn) [Example 7]	–	inhibition	–	–
10	35	100	–	–	O=C1C(=O)N(CCOc2ccc3ccccc3c2)N=C1CC1CCCCC1 [Example 8]	–	no action	–	–
–	40	73	–	–	CC1=NN(C(C)c2cccc(C(F)(F)F)c2)C(=O)C1=O (stereo not drawn) [Example 9]	–	no effect	–	–

More lines, now with the values behind:

SMILES	inhibition at 0.5 µg/mL (5-lipoxygenase) [%]	inhibition at 1 µg/mL (5-lipoxygenase) [%]	inhibition at 5 µg/mL (5-lipoxygenase) [%]	haemodynamic effects (myocardial infarct; LAD ligature, intraduodenal)	inhibition at 0.1 µg/mL (5-lipoxygenase) [%]	cyclooxygenase inhibition (cyclooxygenase)	Inhibition of leucocyte stickiness (leucocyte stickiness)	infarct size (myocardial infarct; gradual LAD occlusion 6 hours, intraduodenal bolus one hour prior to ligature, absolute infarct weight and relative to left ventricle weight)	toxic side effects [1]
O=C1CCN(c2ccccc2)N1 [phenidone]	–	–	–	–	–	act as cyclooxygenase inhibitors either simultaneously or only at very high concentrations	–	–	–
CCCC1=NN(CCOc2ccc3ccccc3c2)C(=O)C1=O [Example 10]	12	56	100	–	–	–	inhibition	–	–
C1=CSc2ccccc2N1 [4H-1,4-benzothiazine]	–	–	–	no haemodynamic effects	–	–	–	substantially reduced the infarct size	–
CC1=NN(CCOc2ccc3ccccc3c2)C(=O)C1=O [Example 1, 3-Methyl-1-[2-(2-naphthyloxy)-ethyl]-2-pyrazole-4,5-dione]	60	85	100	–	29	–	inhibition	–	–
COCC1=NN(CCOc2ccc3ccccc3c2)C(=O)C1=O [Example 4]	47	60	100	–	15	–	inhibition	–	–
CC(Cc1ccc(O)c(O)c1)C(C)Cc1ccc(O)c(O)c1 (stereo not drawn) [nordihydroguaretic acid]	–	–	–	–	–	act as cyclooxygenase inhibitors either simultaneously or only at very high concentrations	–	–	–
NC1=NN(c2cccc(C(F)(F)F)c2)CC1 [3-amino-1-(3-trifluoromethylphenyl)-2-pyrazoline]	–	–	–	–	–	act as cyclooxygenase inhibitors either simultaneously or only at very high concentrations	–	–	toxic side effects
CC(C)(C)C1=NN(CCOc2ccccc2)C(=O)C1=O [Example 2]	–	12	–	–	–	–	inhibition	–	–
CCCCCC=CCC=CCC=CCC=CCCCC(=O)O [5,8,11,14-eicosatetraenoic acid]	–	–	–	–	–	act as cyclooxygenase inhibitors either simultaneously or only at very high concentrations	–	–	–
